Laboratory results: patent US20130171067A1, “[…]-99m COMPLEX AS A TOOL FOR THE IN VIVO DIAGNOSIS OF CANCEROUS TUMOURS” (PIERRE FABRE MEDICAMENT, priority 2010, published 2013)
Structures can show the parent of a compound that is named as a salt.

Assays:
[1] = tested on: B16/F10 mouse melanoma cells; experiment: Tumour fixation, full-body scintigraphy of mice grafted with B16/F10 tumours (tumour-to-muscle ratio, spermine competition); type: in vivo; details: protocol of example 30, 1)
Experimental: 10 days post-grafting, the radiolabelled probe was injected into the mice. Imaging was performed according to the protocol described in example 24 above.
B16/F10 mouse melanoma cells (2.5.10^5 cells) were injected subcutaneously in the right back paw of male C57BL/6 mice. 10 days post-grafting, the complex having formula (II) (14.8 MBq) was injected into 18 mice, 400 μg of spermine having been previously injected into 8 of these mice. Full-body scintigraphic images were then produced 30 min and 2 hours post-injection. For this, the mice, anaesthetised with isoflurane gas, were imaged in the ventral decubitus position on a gamma-camera (γ Imager, BIOSPACE Mesures) with IRIS software (Ariès Nucléaire, France) with the following parameters: • Spectral window: 121-164 KeV • Acquisition time: 3 min • Grid: 256*256
For all the images, a region of interest was plotted around the tumour and another of the same size was defined on the muscle of the contralateral paw to determine the tumour-to-muscle ratio.
The study was conducted according to the protocol described in example 30, 1) above with other complexes having formula (II).

[2] = tested on: B16 cells; experiment: In vitro incorporation in cells with spermine competition (gamma counter); type: cell-based, mouse; details: 30 minutes incubation, 0.2 μM complex, increasing concentration of spermine, FIG. 1
Experimental: (§1) A549 and B16 cells were placed in culture in 24-well plates (2.10^5 cells/well). After 24 hours, the cells were incubated for 30 minutes with the complex having formula (II) at various concentrations or with 0.2 μM of complex having formula (II) optionally in the presence of an increasing concentration of spermine used for evaluating competition with the probe. After incubation, the plates were placed on ice and the cells were rinsed with cold 0.9% NaCl supplemented with 1 mM of spermidine. The cells received a treatment with trypsin. They were suspended in PBS. The activity of each well was measured using a gamma counter.

[3] = tested on: A549 cells; experiment: as above; type: cell-based; details: 30 minutes incubation, 0.2 μM complex, increasing concentration of spermine, FIG. 1
Experimental: as §1

[4] = Plasmatic stability after intravenous injection (radio-HPLC of serum); type: in vivo, mice
Experimental: 14.8 MBq of complex having formula (II) were injected intravenously to healthy male C57BL/6 mice. 30 minutes, 1 h, 2 h, 3 h and 5 hours post-injection, blood samples on heparin were taken from the retro-orbital cavity. These samples were then centrifuged for 5 minutes to collect at least 100 μL of serum. 50 enabled exclusion-diffusion radio-HPLC on a TSK SW2000 column+7.8*300 mm 5μ pre-column (Tosoh bioscience) with a mobile phase (flow rate of 1. ml/min at ambient temperature) consisting of 0.9% NaCl (100%). Macaque albumin labelled with ^99mTc was used to test the albumin retention time. The remaining 50 μL of serum was used to perform reverse-phase radio-HPLC, after protein denaturation with acetonitrile, on an XBridge C8 4.6*250 mm 5μ column (Waters, USA) with a mobile phase (flow rate of 1 ml/min at ambient temperature) consisting of water (55%), acetonitrile (45%) and TFA (0.1%).

[5] = mouse, in vivo
[6] = Biodistribution in healthy mice; details: C57BL/6 mice, intravenous, 30 min to 24 hours post-injection

Question: What does the source list for `NCCCNCCCCNCCCNC(=O)c1ccc(N[NH][Tc]234([O]CC(CO)(CO)[N]2CC(=O)[O]3)[O]C(=O)C[N]4C(CO)(CO)CO)nc1`?
Answer: Observations ([1]; B16/F10 tumour in C57BL/6 mice): Tumour fixation; Effect of spermine on incorporation of the complex [2]: partially inhibits; Effect of spermine on incorporation of the complex [3]: partially inhibits; Proportion of injected complex eliminated ([4]; at 30 minutes after intravenous injection, healthy male C57BL/6 mice): 38%; Trans-chelation of Technetium on plasma albumin ([4]; from 30 minutes after intravenous injection, exclusion-diffusion radio-HPLC): trans-chelated on the plasma albumin; Complex stability in plasma ([4]; reverse-phase radio-HPLC of serum, 30 minutes to 5 hours post-injection): good complex stability; Risk of renal toxicity or side-effects due to dosimetry [5]: no risk of renal toxicity or side-effects due to dosimetry; Distribution in organs [6]: distributed quasi-homogeneously throughout the organs; Persistence of fixation [6]: only persists in the liver and kidneys

Question: With `NCCCCNCCCNC(=O)c1ccc(NN)nc1` (as salt: hydrochloride) [Example 6, N-[3-(4-amino-butylamino)-propyl]-6-hydrazino-nicotinamide] as the compound, how does the melting point read?
Answer: 183 °C

Question: For `NCCCNCCCCNCCCNC(=O)c1ccc(NNC(=O)C(F)(F)F)nc1` (as salt: hydrochloride) [Example 14, N-{3-[4-(3-amino-propylamino)-butylamino]-propyl}-6-[N′-(2,2,2-trifluoro-acetyl)-hydrazino]-nicotinamide], which melting point is on record?
Answer: 237.5 °C

Question: Which “Tumour-to-muscle ratio compared with the other compounds” value [1] does the source give for `NCCCCNC(=O)c1ccc(NN)nc1` [Example 3, N-(4-Amino-butyl)-6-hydrazino-nicotinamide] here?
Answer: lower than with the other compounds

Question: Which “Tumour-to-muscle ratio compared with the other compounds” value [1] does the source give for `NCCCCNCCCNC(=O)c1ccc(NN)nc1` [Example 6, N-[3-(4-amino-butylamino)-propyl]-6-hydrazino-nicotinamide] here?
Answer: lower than with the other compounds
